From ChEMBL document CHEMBL5518204, “Discovery and Proof of Concept of Potent Dual Polθ/PARP Inhibitors for Efficient Treatment of Homologous Recombination-Deficient Tumors” (J Med Chem, 2024)
Active and inactive are the calls of the source. The rule behind the calls is not given here.

Assays:
MCF-10A = assay: (§1) Antiproliferative activity against human MCF-10A cells assessed as inhibition of cell proliferation incubated for 5 days by MTT assay; type: toxicity, cell-based; settings: mcf-10a
MDA-MB-436 [1] = assay: Antiproliferative activity against BRCA1-deficient human MDA-MB-436 cells assessed as inhibition of cell proliferation incubated for 5 days by MTT assay; type: functional, cell-based; settings: MDA-MB-436, 120 h
DNA polymerase theta [2] = biological target: T1, DNA polymerase theta (Homo sapiens, UniProt O75417); assay: Inhibition of DNA polymerase theta (unknown origin) ATPase activity incubated for 60 mins in presence of ATP by ADP-glo kinase assay
SK-OV-3 = assay: Antiproliferative activity against BRCA-proficient human SK-OV-3 cells assessed as inhibition of cell proliferation incubated for 5 days by MTT assay; type: functional, cell-based; settings: SK-OV-3, 120 h
HCT-116 = assay: Antiproliferative activity against BRCA2-deficient human HCT-116 cells assessed as inhibition of cell proliferation incubated for 5 days by MTT assay; type: functional, cell-based; settings: HCT-116, 120 h
[3] = biological target: T2, Poly [ADP-ribose] polymerase 1 (Homo sapiens, UniProt P09874); settings: dose 10.0 nM, time 90.0 min
HCC1937 = assay: Antiproliferative activity against BRCA1-deficient human HCC1937 cells assessed as inhibition of cell proliferation incubated for 5 days by MTT assay; type: functional, cell-based; settings: HCC1937, 120 h
DNA polymerase theta [4] = biological target: T1, DNA polymerase theta; assay: Inhibition of DNA polymerase theta (unknown origin) (1 to 899 residues) ATPase activity by NADH oxidation-coupled enzymatic assay
[5] = as §1; type: toxicity, cell-based; settings: human, MCF-10A cells
DNA polymerase theta [6] = biological target: T1, DNA polymerase theta; assay: Inhibition of human DNA polymerase theta (67 to 970 residues) ATPase activity expressed in Sf9 insect cells incubated for 40 mins by ADP-glo assay
SW48 = assay: Antiproliferative activity against BRCA2-deficient human SW48 cells assessed as inhibition of cell proliferation incubated for 5 days by MTT assay; type: functional, cell-based; settings: SW48, 120 h
[7] = biological target: T2, Poly [ADP-ribose] polymerase 1; assay: Inhibition of human PARP1 incubated for 90 mins by colorimetric assay
MDA-MB-231 [8] = assay: Antitumor activity against human MDA-MB-231 cells xenografted in BALB/c mouse assessed as tumor growth inhibition at 40 mg/kg, ip administered for 21 days; type: functional; settings: MDA-MB-231, 504 h, time 21 day, read-out: TGI
MDA-MB-231 [9] = assay: Induction of cell cycle arrest in human MDA-MB-231 cells assessed as accumulation of cells at G2/M phase at 10 uM incubated for 3 days in presence of olaparib by PI staining based flow cytometric analysis; type: functional; settings: time 3.0 day
MDA-MB-231 [10] = assay: Induction of DNA damage in human MDA-MB-231 cells assessed as increase in tail intensity at 2 to 10 uM incubated for 3 days in presence of olaparib by florescence microscopic analysis; type: functional, cell-based; settings: dose 2-10 µM, time 3.0 day
MDA-MB-231 [11] = assay: Induction of apoptosis in human MDA-MB-231 cells at 2 to 10 uM incubated for 3 days in presence of olaparib by Annexin V-APC/7-AAD based flow cytometry analysis; type: functional; settings: dose 2-10 µM, time 3 day
MDA-MB-231 [12] = assay: Induction of apoptosis in human MDA-MB-231 cells at 10 uM incubated for 3 days by Annexin V-APC/7-AAD based flow cytometry analysis; type: functional; settings: time 3 day
MDA-MB-231 [13] = assay: Induction of DNA damage in human MDA-MB-231 cells assessed as increase in tail intensity at 10 uM incubated for 3 days by florescence microscopic analysis; type: functional, cell-based; settings: time 3.0 day
MDA-MB-231 [14] = assay: Antiproliferative activity against 53BP1-knockdown human MDA-MB-231 cells incubated for 24 hrs by MTT assay; type: functional, cell-based
MDA-MB-436 [15] = assay: Inhibition of colony formation in human MDA-MB-436 cells at 10 uM incubated for 9 days by crystal violet staining based analysis; type: functional, cell-based; settings: time 9.0 day
MDA-MB-231 [16] = assay: Antitumor activity against human MDA-MB-231 cells xenografted in BALB/c mouse assessed as tumor growth inhibition at 40 mg/kg, ip administered for 21 days in presence of olaparib; type: functional; settings: MDA-MB-231, 504 h, time 21 day, read-out: TGI
MDA-MB-231 [17] = assay: Induction of cell cycle arrest in human MDA-MB-231 cells assessed as accumulation of cells at G2/M phase at 10 uM incubated for 3 days by PI staining based flow cytometric analysis; type: functional; settings: time 3.0 day
MDA-MB-231 [18] = assay: Induction of DNA damage in human MDA-MB-231 cells assessed as increase in gammaH2AX foci at 2 to 10 uM incubated for 3 days in presence of olaparib by DAPI staining based confocal laser scanning microscopic analysis; type: functional, cell-based; settings: dose 2-10 µM, time 3.0 day
MDA-MB-231 [19] = assay: Induction of DNA damage in human MDA-MB-231 cells assessed as increase in gammaH2AX foci at 10 uM incubated for 3 days by DAPI staining based confocal laser scanning microscopic analysis; type: functional, cell-based; settings: time 3.0 day
MDA-MB-436 [20] = assay: Inhibition of colony formation in human MDA-MB-436 cells at 2 to 10 uM incubated for 9 days in presence of olaparib by crystal violet staining based analysis; type: functional, cell-based; settings: dose 2-10 µM, time 9.0 day
MDA-MB-231 [21] = assay: Induction of DNA damage in human MDA-MB-231 cells assessed as increase in gammaH2AX foci at 2 uM incubated for 3 days by DAPI staining based confocal laser scanning microscopic analysis; type: functional, cell-based; settings: time 3.0 day
MDA-MB-436 [22] = assay: Inhibition of colony formation in human MDA-MB-436 cells at 2 uM incubated for 9 days by crystal violet staining based analysis; type: functional, cell-based; settings: time 9.0 day
MDA-MB-231 [23] = assay: Induction of DNA damage in human MDA-MB-231 cells assessed as increase in tail intensity at 2 to 10 uM incubated for 3 days in presence of novobiocin by florescence microscopic analysis; type: functional, cell-based; settings: dose 2-10 µM, time 3.0 day
MDA-MB-231 [24] = assay: Induction of cell cycle arrest in human MDA-MB-231 cells assessed as accumulation of cells at G2/M phase at 2 uM incubated for 3 days by PI staining based flow cytometric analysis; type: functional; settings: time 3.0 day
MDA-MB-436 [25] = assay: Inhibition of colony formation in human MDA-MB-436 cells at 2 to 10 uM incubated for 9 days in presence of novobiocin by crystal violet staining based analysis; type: functional, cell-based; settings: dose 2-10 µM, time 9.0 day
MDA-MB-231 [26] = assay: Induction of apoptosis in human MDA-MB-231 cells at 2 uM incubated for 3 days by Annexin V-APC/7-AAD based flow cytometry analysis; type: functional; settings: time 3 day
MDA-MB-231 [27] = assay: Induction of apoptosis in human MDA-MB-231 cells at 2 to 10 uM incubated for 3 days in presence of novobiocin by Annexin V-APC/7-AAD based flow cytometry analysis; type: functional; settings: dose 2-10 µM, time 3 day
MDA-MB-231 [28] = assay: Induction of DNA damage in human MDA-MB-231 cells assessed as increase in gammaH2AX foci at 2 to 10 uM incubated for 3 days in presence of novobiocin by DAPI staining based confocal laser scanning microscopic analysis; type: functional, cell-based; settings: dose 2-10 µM, time 3.0 day
MDA-MB-231 [29] = assay: Induction of cell cycle arrest in human MDA-MB-231 cells assessed as accumulation of cells at G2/M phase at 10 uM incubated for 3 days in presence of novobiocin by PI staining based flow cytometric analysis; type: functional; settings: time 3.0 day
MDA-MB-231 [30] = assay: Induction of DNA damage in human MDA-MB-231 cells assessed as increase in tail intensity at 2 uM incubated for 3 days by florescence microscopic analysis; type: functional, cell-based; settings: time 3.0 day

T1 sequence (O75417 whole entry): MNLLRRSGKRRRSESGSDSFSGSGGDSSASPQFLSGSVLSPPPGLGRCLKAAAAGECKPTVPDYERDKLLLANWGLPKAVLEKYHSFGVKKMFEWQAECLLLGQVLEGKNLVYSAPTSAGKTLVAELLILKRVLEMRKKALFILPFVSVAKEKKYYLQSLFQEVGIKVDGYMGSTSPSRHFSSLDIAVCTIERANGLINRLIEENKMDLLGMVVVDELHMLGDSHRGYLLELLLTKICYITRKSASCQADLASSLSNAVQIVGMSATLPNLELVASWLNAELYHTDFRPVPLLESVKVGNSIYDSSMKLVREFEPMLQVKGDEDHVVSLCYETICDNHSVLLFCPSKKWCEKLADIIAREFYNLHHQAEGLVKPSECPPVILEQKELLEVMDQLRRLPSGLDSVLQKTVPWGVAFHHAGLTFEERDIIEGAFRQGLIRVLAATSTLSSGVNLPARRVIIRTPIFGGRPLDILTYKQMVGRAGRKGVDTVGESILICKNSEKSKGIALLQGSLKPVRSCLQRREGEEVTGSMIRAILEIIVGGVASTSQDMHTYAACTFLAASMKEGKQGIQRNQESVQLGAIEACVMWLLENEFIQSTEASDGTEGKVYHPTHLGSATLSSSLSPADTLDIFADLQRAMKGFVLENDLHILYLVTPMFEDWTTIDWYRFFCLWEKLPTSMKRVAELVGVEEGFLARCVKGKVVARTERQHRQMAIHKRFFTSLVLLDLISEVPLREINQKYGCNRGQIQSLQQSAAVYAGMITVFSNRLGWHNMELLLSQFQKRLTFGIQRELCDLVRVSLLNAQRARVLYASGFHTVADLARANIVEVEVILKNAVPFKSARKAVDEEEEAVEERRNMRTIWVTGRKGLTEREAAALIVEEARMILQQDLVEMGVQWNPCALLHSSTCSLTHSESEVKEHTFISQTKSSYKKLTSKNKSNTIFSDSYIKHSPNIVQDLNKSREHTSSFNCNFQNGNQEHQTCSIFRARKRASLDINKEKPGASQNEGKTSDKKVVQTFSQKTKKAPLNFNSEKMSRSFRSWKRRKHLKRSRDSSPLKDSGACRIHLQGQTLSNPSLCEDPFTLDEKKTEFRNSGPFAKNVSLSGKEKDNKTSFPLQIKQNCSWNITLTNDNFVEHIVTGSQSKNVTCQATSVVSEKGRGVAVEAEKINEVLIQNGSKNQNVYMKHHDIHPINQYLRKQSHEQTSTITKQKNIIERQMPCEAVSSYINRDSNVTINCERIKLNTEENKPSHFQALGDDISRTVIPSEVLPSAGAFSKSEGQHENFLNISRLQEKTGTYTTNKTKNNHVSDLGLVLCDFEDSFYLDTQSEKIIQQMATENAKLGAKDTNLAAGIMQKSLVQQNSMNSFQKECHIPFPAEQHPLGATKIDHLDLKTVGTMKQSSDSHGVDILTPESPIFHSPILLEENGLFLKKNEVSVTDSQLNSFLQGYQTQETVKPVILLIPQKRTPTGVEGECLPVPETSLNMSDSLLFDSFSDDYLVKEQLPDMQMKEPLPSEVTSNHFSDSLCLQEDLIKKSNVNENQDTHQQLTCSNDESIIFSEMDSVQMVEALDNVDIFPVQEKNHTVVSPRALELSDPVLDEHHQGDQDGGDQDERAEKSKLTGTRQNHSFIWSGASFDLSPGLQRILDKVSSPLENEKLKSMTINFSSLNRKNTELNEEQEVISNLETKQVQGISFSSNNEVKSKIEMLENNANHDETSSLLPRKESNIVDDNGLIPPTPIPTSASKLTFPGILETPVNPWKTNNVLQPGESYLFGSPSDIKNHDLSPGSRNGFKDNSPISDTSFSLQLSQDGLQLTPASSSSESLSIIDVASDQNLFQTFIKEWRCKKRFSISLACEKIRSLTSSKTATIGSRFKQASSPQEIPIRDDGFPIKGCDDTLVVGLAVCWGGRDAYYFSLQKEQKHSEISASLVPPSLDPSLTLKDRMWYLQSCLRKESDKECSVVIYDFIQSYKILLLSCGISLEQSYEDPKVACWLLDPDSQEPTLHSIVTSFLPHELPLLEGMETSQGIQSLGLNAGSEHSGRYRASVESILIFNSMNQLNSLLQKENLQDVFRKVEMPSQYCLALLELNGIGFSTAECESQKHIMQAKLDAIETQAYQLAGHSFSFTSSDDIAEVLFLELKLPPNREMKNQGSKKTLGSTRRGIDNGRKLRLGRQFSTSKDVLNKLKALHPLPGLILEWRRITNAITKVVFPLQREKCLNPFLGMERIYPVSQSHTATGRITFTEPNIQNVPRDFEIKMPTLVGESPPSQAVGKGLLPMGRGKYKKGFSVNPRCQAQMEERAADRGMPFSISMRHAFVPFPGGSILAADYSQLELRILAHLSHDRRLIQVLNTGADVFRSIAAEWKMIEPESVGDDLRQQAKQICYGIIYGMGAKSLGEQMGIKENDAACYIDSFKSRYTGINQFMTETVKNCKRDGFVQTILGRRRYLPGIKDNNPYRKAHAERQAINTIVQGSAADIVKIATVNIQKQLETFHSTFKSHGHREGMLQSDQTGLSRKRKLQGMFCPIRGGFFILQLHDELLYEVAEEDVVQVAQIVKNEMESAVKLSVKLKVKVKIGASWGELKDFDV
T2 sequence (P09874 whole entry): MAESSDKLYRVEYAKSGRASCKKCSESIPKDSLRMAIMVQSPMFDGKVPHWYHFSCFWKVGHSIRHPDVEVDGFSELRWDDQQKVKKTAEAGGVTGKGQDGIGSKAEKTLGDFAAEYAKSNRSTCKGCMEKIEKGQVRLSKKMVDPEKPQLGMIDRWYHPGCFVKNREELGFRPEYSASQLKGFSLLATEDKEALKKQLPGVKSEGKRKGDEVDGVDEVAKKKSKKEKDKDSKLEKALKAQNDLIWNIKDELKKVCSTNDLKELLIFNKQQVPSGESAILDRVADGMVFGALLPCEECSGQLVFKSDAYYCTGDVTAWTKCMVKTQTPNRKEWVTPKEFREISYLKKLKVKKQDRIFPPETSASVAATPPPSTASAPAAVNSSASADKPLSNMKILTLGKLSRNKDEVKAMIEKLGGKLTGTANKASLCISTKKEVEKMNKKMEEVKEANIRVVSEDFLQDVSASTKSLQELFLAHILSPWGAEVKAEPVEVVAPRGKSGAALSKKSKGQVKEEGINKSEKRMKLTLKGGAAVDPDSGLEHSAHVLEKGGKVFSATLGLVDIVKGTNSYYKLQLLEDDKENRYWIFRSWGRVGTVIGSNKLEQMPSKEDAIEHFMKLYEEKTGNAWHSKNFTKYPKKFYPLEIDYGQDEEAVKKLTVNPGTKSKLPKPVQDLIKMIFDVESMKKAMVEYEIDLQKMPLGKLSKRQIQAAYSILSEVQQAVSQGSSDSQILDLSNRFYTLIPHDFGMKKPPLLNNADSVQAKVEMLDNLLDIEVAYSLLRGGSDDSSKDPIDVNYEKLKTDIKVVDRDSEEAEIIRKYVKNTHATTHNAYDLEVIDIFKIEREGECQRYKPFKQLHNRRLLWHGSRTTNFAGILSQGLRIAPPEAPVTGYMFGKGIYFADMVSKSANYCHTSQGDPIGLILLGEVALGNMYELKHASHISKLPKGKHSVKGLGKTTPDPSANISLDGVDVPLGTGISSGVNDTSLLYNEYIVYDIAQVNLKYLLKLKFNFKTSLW

Compound | IC50 (MDA-MB-436 [1]) | IC50 (DNA polymerase theta [2]) | IC50 (SK-OV-3) | IC50 (HCT-116) | inhibition [3] | IC50 (HCC1937) | other results
COc1cccc(F)c1-c1cc(C)ncc1C(=O)Nc1nnc(OC2CC3(CCN(C(=O)c4cc(Cc5n[nH]c(=O)c6ccccc56)ccc4F)CC3)C2)s1 | 5.5 µM | 0.0793 µM | > 80 µM | 7.2 µM | 72.8% | 65.6 µM | IC50 (MCF-10A): Non-Toxic
COc1cnc(C(F)F)cc1-c1cc(N2CCC(C)CC2=O)ncc1C(=O)Nc1nnc(C#CC2CC2)s1 (stereo not given) |  |  |  |  |  |  | IC50 (DNA polymerase theta [4]): < 0.2 µM
COc1ccccc1-c1cnccc1C(=O)N1CCN(C(=O)c2cc(Cc3n[nH]c(=O)c4ccccc34)ccc2F)CC1 |  | > 1 µM |  |  | 87.9% |  | 
COc1ccc(Cl)cc1-c1cc(C)ncc1C(=O)Nc1nnc(OC2CC3(CCN(C(=O)c4cc(Cc5n[nH]c(=O)c6ccccc56)ccc4F)CC3)C2)s1 | 10.5 µM | 0.0598 µM | > 80 µM | 6.2 µM | 66.9% | 89.4 µM | IC50 (MCF-10A): Non-Toxic
COc1ccccc1-c1cnccc1C(=O)Nc1nnc(OCc2ccc(Cl)cc2)s1 | 59.4 µM | 0.0024 µM | 92.1 µM | 46.3 µM |  | 61.9 µM | IC50 at 5 days [5]: > 80 µM; IC50 (DNA polymerase theta [6]): 0.0024 µM; IC50 (SW48; read-out: IC50): 13.4 µM; IC50 (DNA polymerase theta [4]): < 0.2 µM
COc1ccc(F)cc1-c1cc(C)ncc1C(=O)Nc1nnc(OC2CC3(CCN(C(=O)c4cc(Cc5n[nH]c(=O)c6ccccc56)ccc4F)CC3)C2)s1 | 9.1 µM | 0.0719 µM | > 80 µM | 8.4 µM | 70.1% | 57.8 µM | IC50 (MCF-10A): Non-Toxic; IC50 [7]: 0.0047 µM
CO[C@@H]1[C@@H](OC(N)=O)[C@@H](O)[C@H](Oc2ccc3c(O)c(NC(=O)c4ccc(O)c(CC=C(C)C)c4)c(=O)oc3c2C)OC1(C)C [NOVOBIOCIN] | 24.3 µM |  | > 80 µM | > 80 µM |  | > 80 µM | inhibition in vivo at 40 mg/kg (MDA-MB-231 [8]): 45%; Activity (MDA-MB-231 [9]): Active; Activity (MDA-MB-231 [10]): Active; Activity (MDA-MB-231 [11]): 14.2%; Activity (MDA-MB-231 [12]): 6.4%; Activity (MDA-MB-231 [13]): Active; IC50 at 5 days [5]: > 80 µM; Activity (MDA-MB-231 [14]): Active; IC50 (SW48; read-out: IC50): > 80 µM; inhibition (MDA-MB-436 [15]): Active; inhibition in vivo at 40 mg/kg (MDA-MB-231 [16]): 62.5%; Activity (MDA-MB-231 [17]): Active; Activity (MDA-MB-231 [18]): Active; Activity (MDA-MB-231 [19]): Active; inhibition (MDA-MB-436 [20]): Active
O=C(c1cc(Cc2n[nH]c(=O)c3ccccc23)ccc1F)N1CCN(C(=O)C2CC2)CC1 [OLAPARIB] | 13.3 µM |  | 27.1 µM |  |  | 38.2 µM | Activity (MDA-MB-231 [21]): Active; inhibition (MDA-MB-436 [22]): Active; Activity (MDA-MB-231 [23]): Active; Activity (MDA-MB-231 [24]): Active; inhibition (MDA-MB-436 [25]): Active; IC50 at 5 days [5]: > 80 µM; Activity (MDA-MB-231 [26]): 8.9%; Activity (MDA-MB-231 [27]): 14.2%; Activity (MDA-MB-231 [28]): Active; Activity (MDA-MB-231 [29]): Active; Activity (MDA-MB-231 [14]): inactive; IC50 (SW48): 4.6 µM; Activity (MDA-MB-231 [30]): Active
COc1ccccc1-c1cnccc1C(=O)Nc1ncc(N2CCN(C(=O)c3cc(Cc4n[nH]c(=O)c5ccccc45)ccc3F)CC2)s1 |  | > 1 µM |  |  | 93.1% |  | 
COc1ccccc1-c1cnccc1C(=O)Nc1nnc(N2CCN(C(=O)c3cc(Cc4n[nH]c(=O)c5ccccc45)ccc3F)CC2)s1 |  | > 1 µM |  |  | 91.4% |  | 
COc1ccccc1-c1cnccc1C(=O)Nc1nnc(OCC2CN(C(=O)c3cc(Cc4n[nH]c(=O)c5ccccc45)ccc3F)C2)s1 |  | > 1 µM |  |  | 36.9% |  | 
O=C(Nc1nnc(OCc2ccc(Cl)cc2)s1)c1cc(Cc2n[nH]c(=O)c3ccccc23)ccc1F |  | > 1 µM |  |  |  |  | 
COc1ccccc1-c1cnccc1C(=O)Nc1nnc(OC2CC3(C2)CN(C(=O)c2cc(Cc4n[nH]c(=O)c5ccccc45)ccc2F)C3)s1 |  | 0.268 µM |  |  | 56.4% |  | 
COc1ccccc1-c1cnccc1C(=O)Nc1nnc(OC2CC3(CCN(C(=O)c4cc(Cc5n[nH]c(=O)c6ccccc56)ccc4F)CC3)C2)s1 |  | 0.166 µM |  |  | 47% |  | 
COc1ccccc1-c1cnccc1C(=O)Nc1nnc(OCc2cc(Cc3n[nH]c(=O)c4ccccc34)ccc2F)s1 |  |  |  |  | 30.3% |  | 
COc1ccccc1-c1cnccc1C(=O)Nc1nnc(N2CC3(CCN(C(=O)c4cc(Cc5n[nH]c(=O)c6ccccc56)ccc4F)CC3)C2)s1 |  | > 1 µM |  |  | 82.8% |  | 
COc1ccccc1-c1cnccc1C(=O)Nc1nnc(OCC2CCN(C(=O)c3cc(Cc4n[nH]c(=O)c5ccccc45)ccc3F)CC2)s1 | 5.6 µM | 0.117 µM | 32.6 µM | 17.6 µM | 91.6% | 18.1 µM | IC50 (MCF-10A): Non-Toxic
